This passage reports melting point and inhibition results from patent US6825185B2, “Substituted aryl compounds as novel cyclooxygenase-2 selective inhibitors, compositions and methods of use” (NitroMed, Inc., priority 2000, dated 2004).

One data set has as its target COX-1 (Homo sapiens, UniProt P23219). The data set can be described thus: COX-1 enzyme activity in human whole blood (A23187 stimulated, thromboxane B2 EIA). In kind it is cell-based. Set-up: Human blood (≈50 mL) from male or female donors who had not received any aspirin or NSAIDs for 14 days; endogenous in cells; host or cells: human whole blood from donors. Particulars: test compound at 100 μM.

A further data set deals with T1, COX-2 (Homo sapiens, UniProt P35354).
T1 sequence (P35354 18-604): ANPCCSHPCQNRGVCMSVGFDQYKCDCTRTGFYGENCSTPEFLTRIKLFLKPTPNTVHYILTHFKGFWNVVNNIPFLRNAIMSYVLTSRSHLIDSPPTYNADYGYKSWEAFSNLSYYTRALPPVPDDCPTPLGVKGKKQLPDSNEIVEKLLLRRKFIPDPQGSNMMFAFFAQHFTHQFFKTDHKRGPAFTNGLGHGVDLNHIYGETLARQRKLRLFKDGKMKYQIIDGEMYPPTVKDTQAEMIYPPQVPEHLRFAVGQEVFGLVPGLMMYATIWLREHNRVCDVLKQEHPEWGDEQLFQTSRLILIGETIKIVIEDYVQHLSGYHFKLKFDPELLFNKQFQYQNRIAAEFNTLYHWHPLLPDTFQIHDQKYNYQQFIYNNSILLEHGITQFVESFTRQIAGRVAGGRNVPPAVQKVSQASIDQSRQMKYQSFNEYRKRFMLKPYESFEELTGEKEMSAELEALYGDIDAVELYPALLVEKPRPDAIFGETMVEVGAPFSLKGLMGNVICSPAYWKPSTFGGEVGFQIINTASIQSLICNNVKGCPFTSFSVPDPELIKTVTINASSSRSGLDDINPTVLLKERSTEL
In words: COX-2 enzyme activity in human whole blood (LPS induced, thromboxane B2 EIA). Format: cell-based. Details: Human blood (≈50 mL) from male or female donors who had not received any aspirin or NSAIDs for 14 days; endogenous in cells; host or cells: human whole blood from donors, LPS-induced. Particulars: test compound at 10 μM.

Sequence of COX-1 (P23219 24-599): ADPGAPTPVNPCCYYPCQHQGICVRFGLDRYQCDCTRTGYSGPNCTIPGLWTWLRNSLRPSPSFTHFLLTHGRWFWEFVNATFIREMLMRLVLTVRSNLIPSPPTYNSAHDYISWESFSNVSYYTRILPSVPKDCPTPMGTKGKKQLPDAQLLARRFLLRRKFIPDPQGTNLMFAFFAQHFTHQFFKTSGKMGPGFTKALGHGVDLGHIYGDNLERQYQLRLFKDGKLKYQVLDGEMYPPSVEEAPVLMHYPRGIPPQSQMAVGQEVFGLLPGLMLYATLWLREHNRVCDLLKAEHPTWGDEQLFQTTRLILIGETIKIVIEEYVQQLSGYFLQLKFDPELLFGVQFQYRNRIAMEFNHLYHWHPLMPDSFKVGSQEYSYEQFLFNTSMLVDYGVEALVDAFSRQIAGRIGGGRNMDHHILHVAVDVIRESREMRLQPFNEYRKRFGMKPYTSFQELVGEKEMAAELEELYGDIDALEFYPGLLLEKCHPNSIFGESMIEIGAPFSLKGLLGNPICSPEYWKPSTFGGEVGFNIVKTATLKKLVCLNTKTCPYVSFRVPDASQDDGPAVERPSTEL

One may read the melting point as the temperature of the solid-liquid transition. The term inhibition denotes the drop in the measured response relative to a control, in per cent. In turn, `CS(=O)(=O)c1ccc(-c2cc3c(cc2Cc2cc(F)cc(F)c2)OCCO3)cc1` [Example 20, 1-(7-((3,5-Difluorophenyl)methyl)(2H, 3H-benzo(3,4-e)1,4-dioxin-6-yl))-4-(methylsulfonyl)benzene] returned a melting point of 160 to 162 °C. The molecule also had an inhibition at 100 µM against COX-1 of 70%. Further, 10 µM produced 40% inhibition at COX-2.

`CS(=O)(=O)c1ccc(-c2cc3c(cc2C(=O)c2cc(F)cc(F)c2)OCCO3)cc1` [Example 22, 3,5-Difluorophenyl 7-(4-(methylsulfonyl)phenyl)(2H, 3H-benzo(e)1,4-dioxin-6-yl) ketone] came in with a melting point of 191 to 193 °C. At COX-1, this molecule registered an inhibition at 100 µM of 90%. Besides, the inhibition at 10 µM against COX-2 is 55%.

`CS(=O)(=O)c1ccc(-c2ccccc2C=C2CCCCC2)cc1` [Example 24e, 1-(2-(Cyclohexylidenemethyl)phenyl)-4-(methylsulfonyl)benzene] showed a melting point of 83 °C. The molecule also had an inhibition at 100 µM against COX-1 of 55%. In addition, the inhibition at 10 µM on COX-2 was found to be 90%.

Molecule `CS(=O)(=O)c1ccc(-c2cc3c(cc2Cc2cc(F)cc(F)c2)OC(C(N)=O)CO3)cc1` (stereo not drawn) [Example 21, 7-((3,5-Difluorophenyl)methyl)-6-(4-(methylsulfonyl)phenyl)-2H, 3H-benzo(e)1,4-dioxin-2-carboxamide] displayed a melting point of 238 to 241 °C. Further, the inhibition at 100 µM against COX-1 came out at 50%. 10 µM produced 30% inhibition against COX-2.
